The values below come from patent US9023858B2, “Substituted pyrido[2,3-d]pyrimidines as delta-5-desaturase inhibitors” (Takeda Pharmaceutical Company Limited, priority 2010, dated 2015).

For data set [1], the target named is T1, delta-5-desaturase (Mus musculus, UniProt Q920L1).
T1 construct: the mice were anesthetized, and the liver was isolated; tissue CLEA Japan, Inc; host or cells: liver of C57BL/6J mice (in vivo dosing)
T1 sequence (Q920L1 1-447): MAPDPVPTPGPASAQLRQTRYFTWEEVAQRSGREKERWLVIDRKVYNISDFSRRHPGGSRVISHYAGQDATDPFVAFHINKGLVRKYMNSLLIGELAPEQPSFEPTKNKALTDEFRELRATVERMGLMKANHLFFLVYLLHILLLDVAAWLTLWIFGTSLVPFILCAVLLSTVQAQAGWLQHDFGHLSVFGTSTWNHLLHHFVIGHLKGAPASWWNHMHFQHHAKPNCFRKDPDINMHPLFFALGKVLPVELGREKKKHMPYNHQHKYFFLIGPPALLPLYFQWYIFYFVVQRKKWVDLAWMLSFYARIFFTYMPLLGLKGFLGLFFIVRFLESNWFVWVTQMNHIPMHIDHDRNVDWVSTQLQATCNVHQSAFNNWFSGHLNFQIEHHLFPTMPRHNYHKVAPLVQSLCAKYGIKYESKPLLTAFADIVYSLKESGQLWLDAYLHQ
The experiment in a line: Delta-5-desaturase inhibitory action in vivo (liver AA/DGLA ratio in mice). As to conditions: 3 mg/kg by gavage for 4 days; male C57BL/6J mice; liver phospholipid fraction; solvent administration group as 100%. The protocol: Delta-5-Desaturase Inhibitory Action In Vivo
The delta-5-desaturase inhibitory action of the test compound in vivo was evaluated by the following method. A suspension of a test compound (3 mg/kg) in 0.5% methylcellulose was administered by gavage every morning at 10 mL/kg for 4 days to 7- to 9-week-old male normal mice (C57BL/6J, CLEA Japan, Inc.) acclimated with a normal chow feed (CE-2, CLEA Japan, Inc.) in individual cages. In the next morning of the final administration, the mice were anesthetized, and the liver was isolated. Total lipid was extracted from about 40 mg of a liver sample with hexane-propanol solution, and a phospholipid fraction was extracted using a solid phase extraction column (Sep-Pak Vac NH2, Waters) and labeled with an esterified long-chain and short-chain fatty acid labeling reagent (YMC). The arachidonic acid and dihomo-γ-linolenic acid contents of the sample after labeling were measured by high performance liquid chromatography (Agilent 1200, Agilent Technologies). The arachidonic acid (AA) content was divided by the content of dihomo-γ-linolenic acid (DGLA) to obtain an AA/DGLA ratio. The decrease rate of the test compound administration group was calculated based on the AA/DGLA ratio of the solvent administration group as 100%, which was used as an index of the liver delta-5-desaturase inhibitory action in vivo.

For data set [2], the target named is T2, delta-5-desaturase (Rattus norvegicus, UniProt Q920R3).
T2 construct: a rat liver microsome fraction (10 μl) diluted to 3 mg/ml with a microsome buffer; from tissue; host or cells: rat liver microsome fraction
T2 sequence (Q920R3 whole entry): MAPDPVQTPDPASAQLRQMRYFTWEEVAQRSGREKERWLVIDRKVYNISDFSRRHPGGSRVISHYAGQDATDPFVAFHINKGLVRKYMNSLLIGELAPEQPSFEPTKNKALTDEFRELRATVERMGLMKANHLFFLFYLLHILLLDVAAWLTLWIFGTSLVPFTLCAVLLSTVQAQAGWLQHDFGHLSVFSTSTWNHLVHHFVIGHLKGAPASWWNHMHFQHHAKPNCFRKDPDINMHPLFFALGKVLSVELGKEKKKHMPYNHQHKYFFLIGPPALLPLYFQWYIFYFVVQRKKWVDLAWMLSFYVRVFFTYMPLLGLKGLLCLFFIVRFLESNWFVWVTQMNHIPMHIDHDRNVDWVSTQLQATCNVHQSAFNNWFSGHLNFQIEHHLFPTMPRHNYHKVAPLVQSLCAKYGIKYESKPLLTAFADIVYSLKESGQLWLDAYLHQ
The experiment in a line: Inhibitory activity on binding of [3H]-labelled Reference Example 1 ligand to delta-5-desaturase (rat liver microsome fraction). The settings on record: test compound 10 μM; for inhibition at 10 µM: 3 nM tritiated ligand of Reference Example 1, read-out: Binding inhibitory activity against compound bind to delta-5-desaturase Binding inhibition rate (%) at 10 μM; for Binding inhibitory activity against compound bind to delta-5-desaturase Binding inhibition rate (%) at 10 μM: 3 nM tritiated ligand of Reference Example 1, sodium salt. As for the experimental part: Inhibitory Activity on Binding of N-[2-({4-oxo-3-[4-(2,2,2-trifluoroethoxy)[2,6-^3H2]phenyl]-3,4-dihydrothieno[3,4-d]pyrimidin-2-yl}sulfanyl)ethyl]acetamide (Reference Example 1) to delta-5-desaturase)
All tests were performed at room temperature at 200 μL/well. A rat liver microsome fraction (30 μg/well) was preincubated with a test compound at a final concentration of 10 μM for 15 min in an assay buffer (10 mM Tris-HCl (pH 7.5), 100 mM KCl, 10 mM NaF, 3 mM MgCl2, 0.005% Tween20 and 1 mM GSH). N-[2-({4-oxo-3-[4-(2,2,2-trifluoroethoxy) [2,6-^3H2]phenyl]-3,4-dihydrothieno[3,4-d]pyrimidin-2-yl}sulfanyl)ethyl]acetamide was added to a final concentration of 3 nM and the mixture was incubated for 150 min. For Bound/Free separation, the membrane fraction was added on a GF/C glass filter using a cell harvester. The GF/C glass filter was washed 5 times with 300 μl of ice-cooled assay buffer (without 0.005% Tween) to separate the ligand bound to delta-5-desaturase. 50 μl of MicroScinti 0 was added, and the radioactivity on the filter was measured by TopCount. To evaluate non-specific binding, 10 μM N-[2-({4-oxo-3-[4-(2,2,2-trifluoroethoxy)phenyl]-3,4-dihydrothieno[3,4-d]pyrimidin-2-yl}sulfanyl)ethyl]acetamide was used. The inhibitory rate (%) of the test compound (10 μM) on the binding of N-[2-({4-oxo-3-[4-(2,2,2-trifluoroethoxy) [2,6-^3H2]phenyl]-3,4-dihydrothieno[3,4-d]pyrimidin-2-yl}sulfanyl)ethyl]acetamide to delta-5-desaturase was determined.

The target of data set [3] is T2, delta-5-desaturase. The data set can be described thus: Delta-5-desaturase inhibitory activity using rat liver microsome. In kind it is biochemical. As to conditions: test compound 10 μM; for delta-5-desaturase inhibitory activity (at liver microsome) Inhibitory activity (%) at 10 μM: sodium salt. The protocol: Delta-5-Desaturase Inhibitory Activity Using Rat Liver Microsome
The inhibitory activity of the test compound on delta-5-desaturase was measured by the method described below. To a solution of the test compound in DMSO prepared in advance was secondarily diluted with a buffer (300 mM NaH2PO4 [pH 7.4], 450 mM KCl, 30 mM NaF, 9 mM MgCl2, 4.5 mM glutathione [reduced form], 0.3% BSA [fatty acid free, SIGMA]) to give an assay buffer. The assay buffer (10 μl) was dispensed to a polypropylene deep 96-well block, and a rat liver microsome fraction (10 μl) diluted to 3 mg/ml with a microsome buffer (10 mM Tris-HCl [pH 7.4], 1 mM EDTA, 250 mM sucrose) was added. The enzyme reaction was started by adding 9 mM NADH, 9 mM ATP, 0.9 mM CoA, 10 μCi/ml (8E,11E,14E)-(1-^14C)eicosa-8,11,14-trienoic acid (PerkinElmer Inc.) (10 μl). The enzyme reaction was performed for 120 min at room temperature, and discontinued by the addition of 10 μl of 2.5M NaOH. After discontinuation of the reaction, the plate was sealed and incubated overnight at 55° C. to allow saponification. The fatty acid was extracted with solvent based on the Bligh & Dyer method described in Can. J. Biochem. Physiol., vol. 37, page 911 (1959) by adding formic acid:methanol:chloroform (1:6:3) (200 μl), maintaining the single layer state, sufficiently stirring the mixture and adding pure water (120 μl) for separation into two layers. The lower chloroform layer (10 μl) was spotted on a reversed-phase TLC plate (RP-18, 1154230001, Merck Japan, Ltd.), developed with acetonitrile:pure water:acetic acid (95:4.5:0.5), and the dried TLC plate was transcribed on Imaging Plate (Fuji Photo Film Co., Ltd.) for 5 hr or longer. The detection was performed using BAS-5000 (Fuji Photo Film Co., Ltd.), and the obtained spot image was numerically converted by Multi Gauge Ver2.3 (Fuji Photo Film Co., Ltd.) and a delta-5-desaturase inhibitory rate (%) of 10 μM test compound was determined.
(In general: Microsomes from liver hold many membrane-bound enzymes, among them those of drug oxidation.)

Data set [4] concerns the target T3, delta-5-desaturase (Homo sapiens, UniProt O60427).
T3 construct: endogenous in cells; host or cells: HepG2
The data set can be described thus: Delta-5-desaturase inhibitory activity using HepG2 cell. The class given is cell-based. As to conditions: test compound 1 μM. As for the experimental part: Delta-5-Desaturase Inhibitory Activity Using HepG2 Cell
HepG2 was plated on a 96-well plate at 1×10^5 cells/well, and cultured overnight in DMEM (Dulbecco's modified Eagle medium) containing 10% FBS (fetal bovine serum). After washing (200 μL×2) with PBS (phosphate buffered saline), 40 μL of a reaction medium (DMEM, penicillin/streptomycin, 0.3% BSA) containing the test compound was added, and the mixture was preincubated in a CO2 incubator at 37° C. for 30 min. The reaction was started by adding a reaction medium (20 μL) containing 0.1 μCi [^14C]Eicosatrienoic acid, and the mixture was incubated in a CO2 incubator at 37° C. Incubation was performed for 3 hr, the cells were washed twice with 200 μL of PBS, detached with 50 μL of trypsin-EDTA and placed on a 96-deep well block. Furthermore, 20 μL of 2.5N NaOH was added, the plate was sealed and incubated overnight at 55° C. to allow saponification. The fatty acid extraction included acidifying with 10 μL of formic acid, adding chloroform:methanol (1:4), stirring, and further adding 200 μL of pure water to separate into two layers. The operation after development with TLC followed the method of detection system using TLC in a system using a rat liver microsome. A delta-5-desaturase inhibitory rate (%) of 1 μM test compound was determined.

Counter-ions that a name gives are not always drawn.

T3 sequence (O60427 whole entry): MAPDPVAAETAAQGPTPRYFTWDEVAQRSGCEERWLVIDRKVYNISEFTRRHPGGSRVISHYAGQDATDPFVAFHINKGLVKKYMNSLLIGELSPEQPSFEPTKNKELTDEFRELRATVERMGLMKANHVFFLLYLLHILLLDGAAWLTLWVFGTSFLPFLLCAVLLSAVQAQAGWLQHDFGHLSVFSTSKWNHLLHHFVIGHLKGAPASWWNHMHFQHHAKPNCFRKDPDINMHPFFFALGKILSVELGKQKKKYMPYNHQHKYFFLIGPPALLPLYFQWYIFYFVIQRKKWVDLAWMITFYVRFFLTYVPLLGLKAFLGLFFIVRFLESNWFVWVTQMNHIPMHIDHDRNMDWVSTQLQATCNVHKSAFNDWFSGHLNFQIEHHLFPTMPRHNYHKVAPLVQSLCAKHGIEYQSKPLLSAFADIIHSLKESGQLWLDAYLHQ

In the case of `CCSc1nc2nc(OC)ccc2c(=O)n1-c1ccc(OCC(F)(F)F)cc1` [Example 1, 2-(ethylsulfanyl)-7-methoxy-3-[4-(2,2,2-trifluoroethoxy)phenyl]pyrido[2,3-d]pyrimidin-4(3H)-one], the “lowering rate (%) of arachidonic acid/dihomo-γ-linolenic acid ratio” value at delta-5-desaturase [1] is recorded as 73%. For the same compound, the inhibition at 10 µM on delta-5-desaturase [2] was determined as 94%; on delta-5-desaturase [3], 100%. Besides, the inhibition at 1 µM on delta-5-desaturase [4] worked out at 101%.
With `CCOc1nc2nc(OC)ccc2c(=O)n1-c1ccc(OCC(F)(F)F)cc1` [Example 4, 2-ethoxy-7-methoxy-3-[4-(2,2,2-trifluoroethoxy)phenyl]pyrido[2,3-d]pyrimidin-4(3H)-one], the “lowering rate (%) of arachidonic acid/dihomo-γ-linolenic acid ratio” value on delta-5-desaturase [1] stood at 64%. Moreover, the inhibition at 10 µM on delta-5-desaturase [2] was 99%; on delta-5-desaturase [3], 102%. In addition, at delta-5-desaturase [4], the inhibition at 1 µM turned out to be 96%.
For the compound `CCOc1nc2[nH]c(=O)ccc2c(=O)n1-c1ccc(OCC(F)(F)F)cc1` [Example 10, 2-ethoxy-3-[4-(2,2,2-trifluoroethoxy)phenyl]pyrido[2,3-d]pyrimidine-4,7(3H,8H)-dione sodium salt], at delta-5-desaturase [1], the “lowering rate (%) of arachidonic acid/dihomo-γ-linolenic acid ratio” value is 71%. In addition, the “Binding inhibitory activity against compound bind to delta-5-desaturase Binding inhibition rate (%) at 10 μM” value at delta-5-desaturase [2] was 94%. Besides, the “delta-5-desaturase inhibitory activity (at liver microsome) Inhibitory activity (%) at 10 μM” value on delta-5-desaturase [3] was 98%.
`O=c1ccc2c(=O)n(-c3ccc(OCC(F)(F)F)cc3)c(OCC(F)(F)F)nc2[nH]1` [Example 12, 2-(2,2,2-trifluoroethoxy)-3-[4-(2,2,2-trifluoroethoxy)phenyl]pyrido[2,3-d]pyrimidine-4,7(3H,8H)-dione sodium salt]: on delta-5-desaturase [1], the “lowering rate (%) of arachidonic acid/dihomo-γ-linolenic acid ratio” value is recorded as 70%. Besides, the “Binding inhibitory activity against compound bind to delta-5-desaturase Binding inhibition rate (%) at 10 μM” value at delta-5-desaturase [2] worked out at 96%. In addition, at delta-5-desaturase [3], the “delta-5-desaturase inhibitory activity (at liver microsome) Inhibitory activity (%) at 10 μM” value amounted to 99%.
For `O=c1ccc2c(=O)n(-c3ccc(OCC(F)(F)F)cc3)c(OC3CCC(F)(F)CC3)nc2[nH]1` [Example 15, 2-[(4,4-difluorocyclohexyl)oxy]-3-[4-(2,2,2-trifluoroethoxy)phenyl]pyrido[2,3-d]pyrimidine-4,7(3H,8H)-dione], the “lowering rate (%) of arachidonic acid/dihomo-γ-linolenic acid ratio” value at delta-5-desaturase [1] was 69%. Further, the figures for the inhibition at 10 µM on delta-5-desaturase [2] and on delta-5-desaturase [3] were 99% and 104%, respectively. In addition, on delta-5-desaturase [4], the inhibition at 1 µM came out at 102%.
Turning to `COCCOc1nccc2c(=O)n(-c3ccc(OCC(F)(F)F)cc3)c(OCCOC)nc12` [Example 35, 2,8-bis(2-methoxyethoxy)-3-[4-(2,2,2-trifluoroethoxy)phenyl]pyrido[3,4-d]pyrimidin-4(3H)-one], the inhibition at 10 µM at delta-5-desaturase [2] is 89%; at delta-5-desaturase [3], 91%. Moreover, the inhibition at 1 µM against delta-5-desaturase [4] was 91%.
Regarding `CCSc1nc2c(=O)n(C)ccc2c(=O)n1-c1ccc(OCC(F)(F)F)cc1` [Example 36, 2-(ethylsulfanyl)-7-methyl-3-[4-(2,2,2-trifluoroethoxy)phenyl]-3,7-dihydropyrido[3,4-d]pyrimidine-4,8-dione], the inhibition at 10 µM on delta-5-desaturase [2] and against delta-5-desaturase [3] was 101% throughout. The inhibition at 1 µM against delta-5-desaturase [4] came out at 92%.
On to `CCSc1nc2nc(OC)cnc2c(=O)n1-c1ccc(OCC(F)(F)F)cc1` [Example 37, 2-(ethylsulfanyl)-7-methoxy-3-[4-(2,2,2-trifluoroethoxy)phenyl]pteridin-4(3H)-one], for which the inhibition at 10 µM at delta-5-desaturase [2] worked out at 97%; against delta-5-desaturase [3] it was 99%. Also, the inhibition at 1 µM on delta-5-desaturase [4] is 93%.
On to `CCSc1nc2[nH]c(=O)cnc2c(=O)n1-c1ccc(OCC(F)(F)F)cc1` [Example 38, 2-(ethylsulfanyl)-3-[4-(2,2,2-trifluoroethoxy)phenyl]pteridine-4,7(3H,8H)-dione], for which the results for the inhibition at 10 µM at delta-5-desaturase [2] and against delta-5-desaturase [3] were 91% and 95%, respectively. For the same compound, the inhibition at 1 µM on delta-5-desaturase [4] worked out at 76%.
Consider `O=C1CCc2c(nc(CCC(F)(F)F)n(-c3ccc(OCC(F)(F)F)cc3)c2=O)N1` [Example 39, 3-[4-(2,2,2-trifluoroethoxy)phenyl]-2-(3,3,3-trifluoropropyl)-5,6-dihydropyrido[2,3-d]pyrimidine-4,7(3H,8H)-dione], for which the “lowering rate (%) of arachidonic acid/dihomo-γ-linolenic acid ratio” value at delta-5-desaturase [1] was 67%. Moreover, the inhibition at 10 µM on delta-5-desaturase [2] amounted to 91%. For the same compound, on delta-5-desaturase [4], the inhibition at 1 µM stood at 98%.
